Test results as given in patent US5663148A, “Anaphylatoxin receptor ligands containing lipophilic residues” (Abbott Laboratories, priority 1994, dated 1997).
*1 amine or outer side, *2 acyl side, *3 side chain or, on linkers, in order; H or OH if unused. Where a SMILES comes first, the peptide text is derived from it. [ ]: non-standard residue; d: D form. The star is where a group is joined. ξ: configuration not given here. X5 = O=C([C@H](CC1CCCCC1)N(Cc1ccccc1)[*:1])[*:2]; X9 = CN(CCCc1ccccc1)[C@@H](CC1CCCCC1)C(=O)*; d(hhPhe) = N[C@H](CCCc1ccccc1)C(=O)O; Cha = N[C@@H](CC1CCCCC1)C(=O)O; ξhhPhe = NC(CCCc1ccccc1)C(=O)O; X7 = O=C(C(O)CC1CCCCC1)*; PhAc = O=C(Cc1ccccc1)*; Ahp = NCCCCCCC(=O)O; X12 = CC(c1ccccc1)*; Ahx = NCCCCCC(=O)O

Target: T1, C5a receptor (Homo sapiens, UniProt P21730)
T1 construct: from tissue; host or cells: polymorphonuclear leukocyte (PMNL) membrane fragments
T1 sequence (P21730 1-350): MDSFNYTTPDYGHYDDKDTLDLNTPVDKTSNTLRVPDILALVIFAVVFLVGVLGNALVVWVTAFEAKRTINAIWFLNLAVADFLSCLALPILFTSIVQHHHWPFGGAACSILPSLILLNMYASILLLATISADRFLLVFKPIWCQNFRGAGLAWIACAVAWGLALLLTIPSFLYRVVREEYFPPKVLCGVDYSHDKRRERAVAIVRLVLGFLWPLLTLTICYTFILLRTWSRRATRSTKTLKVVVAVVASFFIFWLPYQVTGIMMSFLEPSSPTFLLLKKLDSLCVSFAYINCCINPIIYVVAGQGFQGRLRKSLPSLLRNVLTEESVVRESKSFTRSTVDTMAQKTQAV
Experiment: Anaphylatoxin (C5a) receptor binding Ki determination, 125I-C5a on PMNL membrane fragments
Conditions: read-out: Ki (In vitro C5a Receptor Binding Potency)
Method: The membrane-bound radiolabeled C5a was separated from the free radiolabeled C5a by filtration, and the recovered gamma radioactivity was measured. […] Free and membrane-bound ligand were separated by filtration.

| SMILES | Ki |
| --- | --- |
| CC(C)C[C@H](NC(=O)[C@H](C)NC(=O)[C@H](CC1CCCCC1)NC(=O)[C@@H]1CCCN1C(=O)[C@H](CCCCN)NC(=O)CN)C(=O)NC(CCCc1ccccc1)C(=O)N[C@@H](CCCNC(=N)N)C(=O)O (single isomer, unassigned) [Example 52] | 10300 nM |
| CC(C)C[C@H](NC(=O)[C@H](C)NC(=O)[C@H](CC1CCCCC1)NC(=O)[C@@H]1CCCN1C(=O)CCCCCN)C(=O)NC(CCCc1ccccc1)C(=O)N[C@@H](CCCNC(=N)N)C(=O)O (stereo partly drawn) [Example 81, N-(6-Aminohexanoyl)-Prolyl-{(2S)-2-Amino-3-cyclohexylpropanoyl}-Alanyl-Leucyl-{(+)-2-Amino-5-phenylpentanoyl}-Arginyl-OH] (H-[Ahx]P[Cha]AL[ξhhPhe]R-OH) | 110 nM |
| CC(C)C[C@H](NC(=O)CNC(=O)[C@H](CC1CCCCC1)N(C)CCCc1ccccc1)C(=O)N[C@H](CCCc1ccccc1)C(=O)N[C@@H](CCCNC(=N)N)C(=O)O [Example 103, N-(3-Phenylpropyl)-N-methyl-{(2S)-2-Amino-3-cyclohexylpropanoyl}-Glycyl-Leucyl-{(R)-2-Amino-5-phenylpentanoyl}-Arginyl-OH] (X9-GL[d(hhPhe)]R-OH) | 1320 nM |
| CC(C)C[C@H](NC(=O)[C@H](C)NC(=O)[C@H](CC1CCCCC1)NC(=O)[C@@H]1CCCN1C(=O)[C@@H](N)CCCCN)C(=O)NC(CCCc1ccccc1)C(=O)N[C@@H](CCCNC(=N)N)C(=O)O (single isomer, unassigned) [Example 69] | 140 nM |
| CC(C)C[C@H](NC(=O)CNC(=O)[C@H](CC1CCCCC1)NC(=O)[C@H](N)CCCCN)C(=O)NC(CCCc1ccccc1)C(=O)N[C@@H](CCCNC(=N)N)C(=O)O (single isomer, unassigned) [Example 57] | 1930 nM |
| CC(C)C[C@H](NC(=O)CNC(=O)C(O)CC1CCCCC1)C(=O)N[C@H](CCCc1ccccc1)C(=O)N[C@@H](CCCNC(=N)N)C(=O)O (stereo partly drawn) [Example 132, N-(3-Cyclohexyl-2-hydroxypropionyl)-Glycyl-Leucyl-{(R)-2-Amino-5-phenylpentanoyl}-Arginyl-OH] (X7-GL[d(hhPhe)]R-OH) | 420 nM |
| CC(C)C[C@H](NC(=O)[C@H](C)NC(=O)[C@H](CC1CCCCC1)NC(=O)[C@@H]1CCCN1C(=O)[C@H](C)NC(=O)[C@@H](N)Cc1ccccc1)C(=O)NC(CCCc1ccccc1)C(=O)N[C@@H](CCCNC(=N)N)C(=O)O (mixture of isomers) [Example 143, H-Phenylalanyl-Alanyl-Prolyl-{(2S)-2-Amino-3-cyclohexylpropanoyl}-Alanyl-Leucyl-{(±)-2-Amino-5-phenylpentanoyl}-Arginyl-OH] | 54 nM |
| C[C@H](NC(=O)CNC(=O)[C@H](CC1CCCCC1)NC(=O)CCCCCN)C(=O)NC(CCCc1ccccc1)C(=O)N[C@@H](CCCNC(=N)N)C(=O)O (stereo partly drawn) [Example 74, N-(6-Aminohexanoyl)-{(2S)-2-Amino-3-cyclohexylpropanoyl}-Glycyl-Alanyl-{(+)-2-Amino-5-phenylpentanoyl}-Arginyl-OH] (H-[Ahx][Cha]GA[ξhhPhe]R-OH) | 91900 nM |
| CC(C)C[C@H](NC(=O)CNC(=O)[C@H](Cc1ccccc1)NC(=O)CCCCCN)C(=O)NC(CCCc1ccccc1)C(=O)N[C@@H](CCCNC(=N)N)C(=O)O (single isomer, unassigned) [Example 125, N-(6-Aminohexanoyl)-Phenylalanyl-Glycyl-Leucyl-{(R/S)-2-Amino-5-phenylpentanoyl}-Arginyl-OH] | 830 nM |
| CC(C)C[C@H](NC(=O)[C@H](C)NC(=O)[C@H](CC1CCCCC1)NC(=O)[C@@H]1CCCN1C(=O)[C@H](CCCCN)NC(=O)CN)C(=O)NC(CCCc1ccccc1)C(=O)N[C@@H](CCCNC(=N)N)C(=O)O (single isomer, unassigned) [Example 53, H-Glycyl-Lysyl-Prolyl-{(2S)-2-Amino-3-cyclohexylpropanoyl}-Alanyl-Leucyl-{(R/S)-2-Amino-5-phenylpentanoyl}-Arginyl-OH] | 100 nM |
| CC(C)C[C@H](NC(=O)[C@@H]1CCCN1C(=O)[C@H](CC1CCCCC1)NC(=O)CCCCCN)C(=O)NC(CCCc1ccccc1)C(=O)N[C@@H](CCCNC(=N)N)C(=O)O (mixture of isomers) [Example 11, N-(6-Aminohexanoyl)-{(2S)-2Amino-3-cyclohexylpropanoyl}-Prolyl-Leucyl-{(R/S)-2-Amino-5-phenylpentanoyl}-Arginyl-OH] | 3600 nM |
| CC(C)C[C@H](NC(=O)CNC(=O)[C@H](CC1CCCCC1)NC(=O)CCCCN)C(=O)NC(CCCc1ccccc1)C(=O)N[C@@H](CCCNC(=N)N)C(=O)O (single isomer, unassigned) [Example 140] | 18600 nM |
| CC(C)C[C@H](NC(=O)CNC(=O)Cc1ccccc1)C(=O)N[C@H](CCCc1ccccc1)C(=O)N[C@@H](CCCNC(=N)N)C(=O)O [Example 93, N-Phenylacetyl-Glycyl-Leucyl-{(R)-2-Amino-5-phenylpentanoyl}-Arginyl-OH] (PhAc-GL[d(hhPhe)]R-OH) | 170 nM |
| CC(C)C[C@H](NC(=O)CNC(=O)[C@H](CC1CCCCC1)NC(=O)CCCCCCN)C(=O)N(C)C(CCCc1ccccc1)C(=O)N[C@@H](CCCNC(=N)N)C(=O)O (mixture of isomers) [Example 28] | 1720 nM |
| CC(C)C[C@H](NC(=O)[C@@H]1CCCN1C(=O)[C@H](CC1CCCCC1)NC(=O)CNC(=O)CCCCCN)C(=O)NC(CCCc1ccccc1)C(=O)N[C@@H](CCCNC(=N)N)C(=O)O (single isomer, unassigned) [Example 110] | 9300 nM |
| CC(C)C[C@H](NC(=O)CNC(=O)[C@H](CC1CCCCC1)NC(=O)CN)C(=O)NC(CCCc1ccccc1)C(=O)N[C@@H](CCCNC(=N)N)C(=O)O (single isomer, unassigned) [Example 72] | 4270 nM |
| CC(C)C[C@H](NC(=O)CNC(=O)[C@@H](N)CSC(C)c1ccccc1)C(=O)N[C@H](CCCc1ccccc1)C(=O)N[C@@H](CCCNC(=N)N)C(=O)O (stereo partly drawn) [Example 91, H-Cysteinyl(S-1-phenethyl)-Glycyl-Leucyl-{(R)-2-Amino-5-phenylpentanoyl}-Arginyl-OH] (H-C(X12)GL[d(hhPhe)]R-OH) | 390 nM |
| CC(C)C[C@H](NC(=O)CNC(=O)[C@H](CC1CCCCC1)NC(=O)NCc1cccc(CN)c1)C(=O)NC(CCCc1ccccc1)C(=O)N[C@@H](CCCNC(=N)N)C(=O)O (single isomer, unassigned) [Example 142] | 1300 nM |
| N=C(N)NCCC[C@H](NC(=O)C(CCCc1ccccc1)NC(=O)CN(Cc1ccccc1)C(=O)[C@H](CCCCN)NC(=O)[C@@H](N)Cc1ccccc1)C(=O)O (single isomer, unassigned) [Example 95, H-Phenylalanyl-Lysyl-Glycyl(N-benzyl)-{(R/S)-2-Amino-5-phenylpentanoyl}-Arginyl-OH] | 34000 nM |
| CC(C)C[C@H](NC(=O)CNC(=O)[C@H](CC1CCCCC1)NC(=O)CN(C)C(=O)CCCN)C(=O)NC(CCCc1ccccc1)C(=O)N[C@@H](CCCNC(=N)N)C(=O)O (single isomer, unassigned) [Example 112] | 17800 nM |
| CC(C)C[C@H](NC(=O)CNC(=O)[C@H](CC1CCCCC1)N(C)C(=O)CCCCCCN)C(=O)NC(CCCc1ccccc1)C(=O)N[C@@H](CCCNC(=N)N)C(=O)O (single isomer, unassigned) [Example 76] | 1500 nM |
| CC(C)C[C@H](NC(=O)CCc1c[nH]c2ccccc12)C(=O)N[C@H](CCCc1ccccc1)C(=O)N[C@@H](CCCNC(=N)N)C(=O)O [Example 38, N=(Indole-3-propionyl)-Leucyl-{(R)-2-Amino-5-phenylpentanoyl}-Arginyl-OH] | 8400 nM |
| CC(C)[C@H](NC(=O)CNC(=O)[C@H](CC1CCCCC1)NC(=O)CCCCCN)C(=O)NC(CCCc1ccccc1)C(=O)N[C@@H](CCCNC(=N)N)C(=O)O (single isomer, unassigned) [Example 101] | 52000 nM |
| CC(C)C[C@H](NC(=O)[C@H](CCCCN)NC(=O)[C@@H](N)CC1CCCCC1)C(=O)NC(CCCc1ccccc1)C(=O)N[C@@H](CCCNC(=N)N)C(=O)O (single isomer, unassigned) [Example 96] | 33200 nM |
| CC(C)C[C@H](NC(=O)CNC(=O)[C@H](CC1CCCCC1)N(Cc1ccccc1)C(=O)CCCCCCN)C(=O)N[C@H](CCCc1ccccc1)C(=O)N[C@@H](CCCNC(=N)N)C(=O)O [Example 64, N-(7-Aminoheptanoyl)-{(2S)-2-Amino-3-cyclohexylpropanoyl}(N-Benzyl)-Glycyl-Leucyl-{(R)-2-Amino-5-phenylpentanoyl}-Arginyl-OH] (H-[Ahp][X5]GL[d(hhPhe)]R-OH) | 470 nM |
| CC(C)C[C@H](NC(=O)CNC(=O)[C@H](CC1CCCCC1)NC(=O)CN(C)C(=O)CCCN)C(=O)NC(CCCc1ccccc1)C(=O)N[C@@H](CCCNC(=N)N)C(=O)O (mixture of isomers) [Example 113, N-(gamma-Aminobutyryl)-Sarcrosinyl-{(2S)-2-Amino-3-cyclohexyl-propanoyl}-Glycyl-Leucyl-{(R/S)-2-Amino-5-phenylpentanoyl}-Arginyl-OH] | 870 nM |
| N=C(N)NCCC[C@H](NC(=O)C(CCCc1ccccc1)NC(=O)CN(Cc1ccccc1)C(=O)[C@H](CCCCN)NC(=O)[C@@H](N)Cc1ccccc1)C(=O)O (single isomer, unassigned) [Example 94, H-Phenylalanyl-Lysyl-Glycyl(N-benzyl)-{(R/S)-2-Amino-5-phenylpentanoyl}-Arginyl-OH] | 5800 nM |
| CC(C)C[C@H](NC(=O)CNC(=O)[C@@H](N)Cc1c[nH]c2ccccc12)C(=O)N[C@H](CCCc1ccccc1)C(=O)N[C@@H](CCCNC(=N)N)C(=O)O [Example 130, H-Tryptophanyl-Glycyl-Leucyl-{(R)-2-Amino-5-phenylpentanoyl}-Arginyl-OH] (H-WGL[d(hhPhe)]R-OH) | 140 nM |
